Source: ChEMBL document CHEMBL1201862, “PubChem BioAssay data set” (2004)
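Step 1: Grow cells in 96-well plates. Step 2: Expose to compound for 48 hours at 5 concentrations. Step 3: Interpolate endpoints linearly; if unreached, use highest concentration. The concentration for 50% growth inhibition is given as GI50.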 Activity calls are given as the source filed them. Rule as the data show it: active = GI50 up to about 1.1 µM and inactive = higher.

Columns and labels:
Assay in all cases: NCI tumour cell line growth inhibition, 48 h
[1] = system: SK-MEL-28
[2] = system: HOP-62
[3] = system: LOX IMVI
[4] = system: TK-10
[5] = system: HOP-92
[6] = system: MCF7
[7] = system: HCT-15
[8] = system: SK-MEL-2
[9] = system: A498
[10] = system: NCI/ADR-RES
[11] = system: KM12
[12] = system: NCI-H522
[13] = system: HT-29
[14] = system: Hs-578T
[15] = system: OVCAR-5
[16] = system: PC-3
[17] = system: SF-268
[18] = system: OVCAR-8
[19] = system: MDA-MB-231
[20] = system: HCC 2998
[21] = system: UACC-257
[22] = system: HL-60
[23] = system: BT-549
[24] = system: MDA-MB-435
[25] = system: SNB-75
[26] = system: RPMI-8226
[27] = system: MDA-N
[28] = system: UO-31
[29] = system: Malme-3M
[30] = system: CAKI-1
[31] = system: NCI-H23
[32] = system: NCI-H460
[33] = system: SW-620
[34] = system: UACC-62
[35] = system: IGROV-1
[36] = system: HCT-116
[37] = system: COLO 205
[38] = system: RXF 393
[39] = system: OVCAR-4
[40] = system: SF-295
[41] = system: DU-145
[42] = system: SNB-19
[43] = system: M14
[44] = system: SK-OV-3
[45] = system: T47D
[46] = system: EKVX
[47] = system: 786-0
[48] = system: ACHN
[49] = system: CCRF-CEM
[50] = system: A549
[51] = system: SK-MEL-5
[52] = system: U-251
[53] = system: SN12C
[54] = system: NCI-H226
[55] = system: OVCAR-3
[56] = system: MOLT-4
[57] = system: K562
[58] = system: SF-539
[59] = system: SR

Structure (SMILES): Cc1cc2c(cc1C)[n+]([O-])c(N1CCN(c3ccc([N+](=O)[O-])cc3)CC1)c(C#N)[n+]2[O-]
- GI50 [1]: > 100 µM (inactive)
- GI50 [2]: 15.2 µM (inactive)
- GI50 [3]: 25.2 µM (inactive)
- GI50 [4]: 15 µM (inactive)
- GI50 [5]: 23.2 µM (inactive)
- GI50 [6]: 28.6 µM (inactive)
- GI50 [7]: 85.3 µM
- GI50 [8]: 22 µM (inactive)
- GI50 [9]: 35 µM (inactive)
- GI50 [10]: 26.2 µM (inactive)
- GI50 [11]: > 100 µM (inactive)
- GI50 [12]: 26.2 µM (inactive)
- GI50 [13]: > 100 µM (inactive)
- GI50 [14]: 34.6 µM (inactive)
- GI50 [15]: 37.6 µM (inactive)
- GI50 [16]: 32.3 µM (inactive)
- GI50 [17]: 41.7 µM (inactive)
- GI50 [18]: 16.6 µM (inactive)
- GI50 [19]: 20 µM (inactive)
- GI50 [20]: > 100 µM (inactive)
- GI50 [21]: 85.9 µM (inactive)
- GI50 [22]: > 100 µM (inactive)
- GI50 [23]: 32.4 µM (inactive)
- GI50 [24]: > 100 µM (inactive)
- GI50 [25]: 4.61 µM (inactive)
- GI50 [26]: > 100 µM (inactive)
- GI50 [27]: > 100 µM (inactive)
- GI50 [28]: 23.5 µM (inactive)
- GI50 [29]: 69.5 µM (inactive)
- GI50 [30]: 83 µM (inactive)
- GI50 [31]: 25.6 µM (inactive)
- GI50 [32]: 20.3 µM (inactive)
- GI50 [33]: > 100 µM (inactive)
- GI50 [34]: 20.3 µM (inactive)
- GI50 [35]: 25.3 µM (inactive)
- GI50 [36]: 61.7 µM (inactive)
- GI50 [37]: > 100 µM (inactive)
- GI50 [38]: 13 µM (inactive)
- GI50 [39]: 39.4 µM (inactive)
- GI50 [40]: 15.2 µM (inactive)
- GI50 [41]: 32.8 µM (inactive)
- GI50 [42]: 18 µM (inactive)
- GI50 [43]: 35.9 µM (inactive)
- GI50 [44]: 14.2 µM (inactive)
- GI50 [45]: 16.3 µM (inactive)
- GI50 [46]: 26 µM (inactive)
- GI50 [47]: 14.1 µM (inactive)
- GI50 [48]: 15.3 µM (inactive)
- GI50 [49]: > 100 µM (inactive)
- GI50 [50]: 29.8 µM (inactive)
- GI50 [51]: 75.7 µM (inactive)
- GI50 [52]: 17 µM (inactive)
- GI50 [53]: 35.3 µM (inactive)
- GI50 [54]: 35.6 µM (inactive)

Structure (SMILES): CN1CCc2c(sc3ncn(Nc4ccc(Cl)cc4)c(=N)c23)C1
- GI50 [1]: > 100 µM (inactive)
- GI50 [2]: > 100 µM (inactive)
- GI50 [3]: > 100 µM (inactive)
- GI50 [4]: > 100 µM (inactive)
- GI50 [5]: > 100 µM (inactive)
- GI50 [6]: > 100 µM (inactive)
- GI50 [7]: > 100 µM
- GI50 [8]: > 100 µM (inactive)
- GI50 [9]: > 100 µM (inactive)
- GI50 [10]: > 100 µM (inactive)
- GI50 [11]: > 100 µM (inactive)
- GI50 [12]: > 100 µM (inactive)
- GI50 [13]: > 100 µM (inactive)
- GI50 [14]: > 100 µM (inactive)
- GI50 [15]: > 100 µM (inactive)
- GI50 [16]: > 100 µM (inactive)
- GI50 [17]: > 100 µM (inactive)
- GI50 [18]: > 100 µM (inactive)
- GI50 [19]: > 100 µM (inactive)
- GI50 [55]: > 100 µM (inactive)
- GI50 [21]: > 100 µM (inactive)
- GI50 [22]: > 100 µM (inactive)
- GI50 [23]: > 100 µM (inactive)
- GI50 [24]: > 100 µM (inactive)
- GI50 [25]: > 100 µM (inactive)
- GI50 [26]: > 100 µM (inactive)
- GI50 [27]: > 100 µM (inactive)
- GI50 [29]: > 100 µM (inactive)
- GI50 [30]: > 100 µM (inactive)
- GI50 [31]: > 100 µM (inactive)
- GI50 [32]: > 100 µM (inactive)
- GI50 [33]: > 100 µM (inactive)
- GI50 [56]: > 100 µM (inactive)
- GI50 [34]: > 100 µM (inactive)
- GI50 [35]: > 100 µM (inactive)
- GI50 [36]: > 100 µM (inactive)
- GI50 [37]: > 100 µM (inactive)
- GI50 [38]: > 100 µM (inactive)
- GI50 [39]: > 100 µM (inactive)
- GI50 [40]: > 100 µM (inactive)
- GI50 [57]: > 100 µM (inactive)
- GI50 [41]: > 100 µM (inactive)
- GI50 [42]: > 100 µM (inactive)
- GI50 [43]: > 100 µM (inactive)
- GI50 [44]: > 100 µM (inactive)
- GI50 [45]: > 100 µM (inactive)
- GI50 [46]: > 100 µM (inactive)
- GI50 [47]: > 100 µM (inactive)
- GI50 [48]: > 100 µM (inactive)
- GI50 [49]: > 100 µM (inactive)
- GI50 [50]: > 100 µM (inactive)
- GI50 [51]: > 100 µM (inactive)
- GI50 [52]: > 100 µM (inactive)
- GI50 [53]: > 100 µM (inactive)
- GI50 [58]: > 100 µM (inactive)
- GI50 [54]: > 100 µM (inactive)

Structure (SMILES): CCOC(=O)NC(=S)NC(C)c1ccccc1 (configuration not stated)
- GI50 [1]: > 100 µM (inactive)
- GI50 [2]: > 100 µM (inactive)
- GI50 [4]: > 100 µM (inactive)
- GI50 [6]: > 100 µM (inactive)
- GI50 [7]: > 100 µM
- GI50 [8]: > 100 µM (inactive)
- GI50 [10]: > 100 µM (inactive)
- GI50 [11]: > 100 µM (inactive)
- GI50 [12]: > 100 µM (inactive)
- GI50 [13]: > 100 µM (inactive)
- GI50 [14]: > 100 µM (inactive)
- GI50 [15]: > 100 µM (inactive)
- GI50 [16]: > 100 µM (inactive)
- GI50 [59]: 56.6 µM (inactive)
- GI50 [17]: > 100 µM (inactive)
- GI50 [18]: > 100 µM (inactive)
- GI50 [19]: > 100 µM (inactive)
- GI50 [55]: > 100 µM (inactive)
- GI50 [20]: > 100 µM (inactive)
- GI50 [21]: > 100 µM (inactive)
- GI50 [23]: > 100 µM (inactive)
- GI50 [24]: > 100 µM (inactive)
- GI50 [25]: > 100 µM (inactive)
- GI50 [26]: 27.2 µM (inactive)
- GI50 [27]: > 100 µM (inactive)
- GI50 [28]: 70.6 µM (inactive)
- GI50 [29]: > 100 µM (inactive)
- GI50 [30]: > 100 µM (inactive)
- GI50 [31]: > 100 µM (inactive)
- GI50 [33]: > 100 µM (inactive)
- GI50 [56]: 26.4 µM (inactive)
- GI50 [34]: > 100 µM (inactive)
- GI50 [35]: > 100 µM (inactive)
- GI50 [36]: > 100 µM (inactive)
- GI50 [37]: > 100 µM (inactive)
- GI50 [38]: > 100 µM (inactive)
- GI50 [39]: > 100 µM (inactive)
- GI50 [40]: > 100 µM (inactive)
- GI50 [57]: > 100 µM (inactive)
- GI50 [41]: > 100 µM (inactive)
- GI50 [42]: > 100 µM (inactive)
- GI50 [43]: > 100 µM (inactive)
- GI50 [44]: > 100 µM (inactive)
- GI50 [45]: 98.6 µM (inactive)
- GI50 [46]: > 100 µM (inactive)
- GI50 [47]: > 100 µM (inactive)
- GI50 [48]: > 100 µM (inactive)
- GI50 [49]: > 100 µM (inactive)
- GI50 [50]: > 100 µM (inactive)
- GI50 [51]: > 100 µM (inactive)
- GI50 [52]: > 100 µM (inactive)
- GI50 [54]: > 100 µM (inactive)
